Blank lines part the entries; values can stand above or below the compound they belong to. The source made the active and inactive calls. The rule behind the calls is not given here.
How the values were obtained:
[1] = molecular target: DEPTOR/mTOR (Homo sapiens) (UniProt P42345+Q8TB45); assay: Inhibition of DEPTOR-mTOR interaction (unknown origin) by yeast-2-hybrid screen based assay; assay type: protein assay
[2] = Therapeutic index, ratio of IC50 for cytotoxicity against human PBL cells incubated for 48 hrs by MTT assay to IC50 for cytotoxicity against human MM1S cells incubated for 48 hrs by MTT assay; assay type: toxicity, cell-based; conditions: PBL cells versus MM1S cells, read-out: Ratio IC50
[3] = molecular target: T1, DEP domain-containing mTOR-interacting protein (Homo sapiens, UniProt Q8TB45); assay: Inhibition of DEPTOR in human RPMI8226 cells assessed as increase in mTOR kinase activity by measuring induction of p21 expression at 0.5 to 2 uM uM by Western blot analysis; assay type: cell-based
T1 sequence (Q8TB45 whole entry, the tested form may be a part): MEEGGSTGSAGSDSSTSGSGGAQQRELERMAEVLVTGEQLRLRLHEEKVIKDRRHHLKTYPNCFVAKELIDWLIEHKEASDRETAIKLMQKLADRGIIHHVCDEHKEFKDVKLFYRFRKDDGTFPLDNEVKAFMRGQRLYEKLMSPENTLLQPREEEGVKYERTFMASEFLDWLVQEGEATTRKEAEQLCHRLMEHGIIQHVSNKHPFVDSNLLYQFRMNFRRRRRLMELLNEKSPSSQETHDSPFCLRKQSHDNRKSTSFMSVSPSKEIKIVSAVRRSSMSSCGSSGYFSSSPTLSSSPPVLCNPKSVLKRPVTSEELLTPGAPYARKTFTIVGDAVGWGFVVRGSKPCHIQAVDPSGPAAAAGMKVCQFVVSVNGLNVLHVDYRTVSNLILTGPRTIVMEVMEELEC

RPMI-8226 [4] = assay: Induction of apoptosis in human RPMI8226 cells at 0.12 to 2 uM by flow cytometry; assay type: functional, cell-based
RPMI-8226 [5] = assay: Antitumor activity against human RPMI8226 cells xenografted in mouse assessed as reduction in tumor volume at 20 mg/kg, ip dosed daily for 4 days; assay type: functional, organism-based
[6] = molecular target: T1, DEP domain-containing mTOR-interacting protein; assay: Inhibition of DEPTOR in human RPMI8226 cells assessed as induction of mTORC1 activation at 0.5 uM incubated for 6 hrs co-immunoprecipitation assay; assay type: cell-based
NCI-H929 = assay: Induction of apoptosis in human NCI-H929 cells at 0.12 to 2 uM incubated for 48 hrs by flow cytometry; assay type: functional, cell-based
RPMI-8226 [7] = assay: Cytotoxicity in human RPMI8226 cells transfected with DEPTOR at 0.25 to 1 uM incubated for 48 hrs by MTT assay; assay type: functional, cell-based
RPMI-8226 [8] = assay: Toxicity in human RPMI8226 cells xenografted in mouse assessed as effect on normal WBC counts at 20 mg/kg, ip dosed daily for 4 days; assay type: organism-based; conditions: in vivo, 96 h
MM1.S [9] = assay: Cytotoxicity in human MM1S cells at 0.25 to 2 uM incubated for 48 hrs in presence of RAPTOR siRNA by MTT assay; assay type: functional, cell-based
RPMI-8226 [10] = assay: Induction of apoptosis in human RPMI8226 cells transfected with DEPTOR at 0.12 to 1 uM by flow cytometry; assay type: functional, cell-based
[11] = molecular target: T1, DEP domain-containing mTOR-interacting protein; assay: Induction of proteasome-dependent DEPTOR degradation in human RPMI8226 cells at 0.5 to 2 uM; assay type: cell-based
RPMI-8226 [12] = assay: Toxicity in human RPMI8226 cells xenografted in mouse assessed as effect on platelet count at 20 mg/kg, ip dosed daily for 4 days; assay type: organism-based; conditions: in vivo, 96 h
OPM-2 [13] = assay: Induction of apoptosis in human OPM2 cells at 0.12 to 2 uM incubated for 48 hrs incubated for 48 hrs by flow cytometry; assay type: functional, cell-based
OPM-2 [14] = assay: Cytotoxicity in human OPM2 cells incubated for 48 hrs by MTT assay; assay type: functional, cell-based; conditions: OPM-2, 48 h
RPMI-8226 [15] = assay: Toxicity in human RPMI8226 cells xenografted in mouse assessed as effect on hematocrit at 20 mg/kg, ip dosed daily for 4 days; assay type: organism-based; conditions: in vivo, 96 h
[16] = molecular target: T1, DEP domain-containing mTOR-interacting protein; assay: Inhibition of DEPTOR in human RPMI8226 cells assessed as increase in mTOR kinase activity by measuring induction of p21 expression at 0.25 to 1 uM uM by Western blot analysis; assay type: cell-based
RPMI-8226 [17] = assay: Toxicity in human RPMI8226 cells xenografted in mouse assessed as effect on hemoglobin concentration at 20 mg/kg, ip dosed daily for 4 days; assay type: organism-based; conditions: in vivo, 96 h
MM1.S [18] = assay: Cytotoxicity in human MM1S cells incubated for 48 hrs by MTT assay; assay type: functional, cell-based
[19] = molecular target: T1, DEP domain-containing mTOR-interacting protein; assay: Inhibition of DEPTOR in human RPMI8226 cells assessed as increase in mTOR kinase activity by measuring induction of p70 phosphorylation incubated for 6 hrs by Western blot analysis; assay type: cell-based
RPMI-8226 [20] = assay: Toxicity in human RPMI8226 cells at 1 to 2 uM incubated for 6 hrs; assay type: cell-based; conditions: rpmi-8226, 6 h
RPMI-8226 [21] = assay: Induction of p70 degradation in human RPMI8226 cells at 1 to 2 uM incubated for 6 hrs by Western blot analysis; assay type: cell-based; conditions: rpmi-8226, 6 h
RPMI-8226 [22] = assay: Toxicity in human RPMI8226 cells at 0.05 to 0.2 uM incubated for 6 hrs; assay type: cell-based; conditions: rpmi-8226, 6 h
RPMI-8226 [23] = assay: Toxicity in human RPMI8226 cells at 0.5 uM incubated for 6 hrs; assay type: cell-based; conditions: rpmi-8226, 6 h
[24] = Toxicity in normal hematopoietic colony forming cells (unknown origin) assessed as reduction in colony formation at 10 uM
[25] = molecular target: T1, DEP domain-containing mTOR-interacting protein; assay: Inhibition of DEPTOR in human RPMI8226 cells assessed as induction of mTORC1 activation at 1 uM incubated for 6 hrs co-immunoprecipitation assay; assay type: cell-based
[26] = Toxicity in normal hematopoietic colony forming cells (unknown origin) assessed as reduction in colony formation at 0.5 uM
MM1.S [27] = assay: Cytotoxicity in human MM1S cells at 0.12 to 1 uM incubated for 48 hrs in presence of RAPTOR siRNA by MTT assay; assay type: functional, cell-based

Chain of DEPTOR/mTOR (Homo sapiens) (Q8TB45 whole entry, looked up, other chains not shown): as the sequence (Q8TB45 whole entry, the tested form may be a part) above

inhibition activity call (active/inactive) [1]: Active
SMILES: CCCCCCCCNS(=O)(=O)c1ccccc1

inhibition [3]: Active
SMILES: O=C(c1ccc(F)cc1)N(N=C1C(Cl)=C(Cl)C(Cl)=C1Cl)C(=O)c1ccc(F)cc1
selectivity ratio at 48 h [2]: 10
Activity (RPMI-8226 [4]): Active

mTORC1 activation (active/not active) [6]: Active
Activity [11]: Active
inhibition [16]: Active
SMILES: FC(F)(F)c1cccc(NN=C2C(Cl)=C(Cl)C(Cl)=C2Cl)c1
Activity (RPMI-8226 [5]): Active
Activity (NCI-H929): Active
Activity (RPMI-8226 [7]): inactive
Activity (RPMI-8226 [8]): Toxic
Activity (MM1.S [9]): inactive
selectivity ratio at 48 h [2]: 136
Activity (RPMI-8226 [10]): inactive
Activity (RPMI-8226 [12]): Non-Toxic
Activity (OPM-2 [13]): Active
IC50 (OPM-2 [14]): 300 nM
Activity (RPMI-8226 [15]): Non-Toxic
Activity (RPMI-8226 [4]): Active
Activity (RPMI-8226 [17]): Non-Toxic

SMILES: Fc1ccccc1NN=C1C(Cl)=C(Cl)C(Cl)=C1Cl
IC50 (MM1.S [18]): > 3000 nM

SMILES: NN=C(c1ccccc1)c1ccccc1
IC50 (MM1.S [18]): > 5000 nM

inhibition activity call (active/inactive) [1]: Active
SMILES: O=C(O)c1ccc2c(c1)CCC2

IC50 [19]: > 5000 nM
SMILES: CC(C)(C)NN=C1C(Cl)=C(Cl)C(Cl)=C1Cl
IC50 (MM1.S [18]): > 3000 nM

IC50 [19]: > 5000 nM
SMILES: ClC1=C(Cl)C(Cl)=C(Cl)C1=NNC1CCCCC1
IC50 (MM1.S [18]): > 3000 nM

SMILES: CN(C)N=C1C(Cl)=C(Cl)C(Cl)=C1Cl
IC50 (MM1.S [18]): > 3000 nM

inhibition [16]: Active
SMILES: CC(C)(C)C(=O)NN=C1C(Cl)=C(Cl)C(Cl)=C1Cl
selectivity ratio at 48 h [2]: 14
Activity (RPMI-8226 [4]): Active

SMILES: COc1cccc(NN=C2C(Cl)=C(Cl)C(Cl)=C2Cl)c1
IC50 (MM1.S [18]): > 3000 nM

SMILES: O=C(NN=C1C(Cl)=C(Cl)C(Cl)=C1Cl)c1ccccc1
Activity (RPMI-8226 [20]): Toxic
Activity (RPMI-8226 [21]): Toxic
Activity (RPMI-8226 [22]): Non-Toxic
Activity (RPMI-8226 [23]): Toxic

SMILES: Fc1cccc(NN=C2c3ccccc3-c3ccccc32)c1
IC50 (MM1.S [18]): > 5000 nM

SMILES: CC(C)(C)OC(=O)NN=C1c2ccccc2-c2ccccc21
IC50 (MM1.S [18]): > 5000 nM

SMILES: NN=c1c2ccccc2oc2ccccc12
IC50 (MM1.S [18]): > 5000 nM

SMILES: ClC1=C(Cl)C(Cl)=C(Cl)C1=NN(c1ccccc1)c1ccccc1
IC50 (MM1.S [18]): > 3000 nM

SMILES: NN=C1C(Cl)=C(Cl)C(Cl)=C1Cl
Activity (RPMI-8226 [5]): Active
IC50 (MM1.S [18]): 3000 to 3300 nM
mTORC1 activation (active/not active) [6]: inactive
Activity (NCI-H929): Active
Activity [24]: Toxic
selectivity ratio at 48 h [2]: 14.3
IC50 [19]: 1300 nM
inhibition activity call (active/inactive) [1]: Active
Activity (OPM-2 [13]): Active
IC50 (OPM-2 [14]): 4000 nM
inhibition [25]: Active
Activity (RPMI-8226 [4]): Active

inhibition activity call (active/inactive) [1]: Active
SMILES: CN(C)c1ccc(/C=C2\C=Cc3ccccc32)cc1F
Activity [26]: Toxic

SMILES: Cc1cccc(NN=C2C(Cl)=C(Cl)C(Cl)=C2Cl)c1
IC50 (MM1.S [18]): > 3000 nM

mTORC1 activation (active/not active) [6]: inactive
inhibition [3]: Active
SMILES: CC(C)(C)OC(=O)NN=C1C(Cl)=C(Cl)C(Cl)=C1Cl
selectivity ratio at 48 h [2]: 45.5
Activity (MM1.S [27]): inactive
Activity (RPMI-8226 [4]): Active

mTORC1 activation (active/not active) [6]: inactive
inhibition [3]: Active
SMILES: Fc1ccc(NN=C2C(Cl)=C(Cl)C(Cl)=C2Cl)cc1
selectivity ratio at 48 h [2]: 33
Activity (MM1.S [27]): inactive

Source: ChEMBL document CHEMBL4417640, “Inhibitors of mtor-deptor interactions and methods of use thereof” (2018)
